System: adult, male Wistar rats
Assay: Sleep-wakefulness monitoring (SCORE-2004, EEG/EMG) in rats after oral dosing at CT-18
Format: in vivo, rat
Conditions: for LONGEST UNINTERRUPTED SLEEP BOUT: bout length defined in minutes; for MAXIMUM NREM SLEEP CUMULATION: cumulative nonREM defined in minutes, in min
Protocol: Sleep-wakefulness, locomotor activity and body temperature are monitored in male Wistar rats treated with a test compound (i.e., benzisoxazole analog) initially at a concentration of 10 mg/kg. Higher and lower doses are assayed for select compounds (e.g., as high as 45 mg/kg, and as low as necessary to establish a no-effect dose). Treatments are administered at CT-18, the peak of the activity dominated period (6 hours after lights-off), and produced soporific (sleep-inducing) effects characterized by increased non-REM sleep time, increased sleep continuity, but without evidence of REM sleep inhibition or rebound insomnia.
Sleep-wakefulness, locomotor activity and body temperature were monitored in vivo with various compounds of the invention. Adult, male Wistar rats (250 g at time of surgery, Charles River Laboratories, Wilmington Mass.) were anesthetized (2% isoflourane in medical grade oxygen) and surgically prepared with a cranial implant to permit chronic electro-encephalogram (EEG) and electromyogram (EMG) recording. Body temperature and locomotor activity were monitored via a miniature transmitter (Mini-Mitter, Bend, Oreg.) surgically placed in the abdomen. The cranial implant consisted of stainless steel screws (two frontal [+3.2 AP from bregma, ±2.0 ML] and two occipital [−6.9 AP, ±5.5 ML]) for EEG recording. Two Teflon®-coated stainless steel wires were positioned under the nuchal trapezoid muscles for EMG recording. All leads were soldered to a miniature connector prior to surgery, and gas sterilized in ethylene oxide. The implant assembly was affixed to the skull with dental acrylic. A minimum of three weeks was allowed for surgical recovery.
Each rat was permanently housed in its own individual recording cage located within separate, ventilated compartments of custom-designed stainless steel cabinets. Each cage was enhanced with a filter-top riser and low-torque swivel-commutator. Food and water were available ad libitum. A 24-hr light-dark cycle (12 hours light, 12 hours dark) was maintained throughout the study. Animals were undisturbed for at least 48 hours before and after treatments.
Sleep and wakefulness were determined using “SCORE-2004™” (Hypnion, Worcester, Mass.)—an internet-based sleep-wake and physiological monitoring system. The system monitored amplified EEG (bandpass 1-30 Hz), integrated EMG (bandpass 10-100 Hz), body temperature and non-specific locomotor activity (LMA) via telemetry, and drinking activity, continuously and simultaneously. Arousal states were classified on-line as non-REM (NREM) sleep, REM sleep, wake, or theta-dominated wake every 10 seconds. Total drinking and locomotor activity counts, and body temperature were quantitiated and recorded each minute, using EEG feature extraction and pattern-matching algorithms. […] The classification algorithm used individually-taught EEG-arousal-state templates, plus EMG criteria to differentiate REM sleep from theta-dominated wakefulness, plus behavior-dependent contextual rules (e.g., if the animal was drinking, it is awake). Drinking and locomotor activity intensity (LMA) were recorded every 10 seconds, while body temperature was recorded each minute. Locomotor activity was detected by a telemetry receiver (Mini-Mitter) beneath the cage. Telemetry measures (LMA and body temperature) were not part of the scoring algorithm; thus, sleep-scoring and telemetry data were independent measures.
Compounds were administered at CT-18, the peak of the activity-dominated period, sufficient time was allowed to view the time course of the treatment effect before lights-on (6 hours post-treatment). Compounds were suspended in sterile 0.25% or 0.5% methylcellulose (1-2 ml/kg). Treatments were administered orally as a bolus.
A parallel group study design was employed. […]

CC(C)(CN1CCC(c2noc3ccccc23)CC1)C(=O)O [Compound 1]
LONGEST UNINTERRUPTED SLEEP BOUT (0.3 mg/kg oral): 3.3 ± 1.8 | MAXIMUM NREM SLEEP CUMULATION (0.3 mg/kg oral): 13 ± 4 | LONGEST UNINTERRUPTED SLEEP BOUT (1 mg/kg oral): 17.2 ± 4.8 | MAXIMUM NREM SLEEP CUMULATION (1 mg/kg oral): 23 ± 6 | LONGEST UNINTERRUPTED SLEEP BOUT (3 mg/kg oral): 16.1 ± 2.3 | MAXIMUM NREM SLEEP CUMULATION (3 mg/kg oral): 21 ± 6 | LONGEST UNINTERRUPTED SLEEP BOUT (10 mg/kg oral): 15.2 ± 3.3 | MAXIMUM NREM SLEEP CUMULATION (10 mg/kg oral): 28 ± 5
